Results taken from patent publication US9890153B2, “Substituted 1H-pyrrolo [2, 3-b] pyridine and 1H-pyrazolo [3, 4-b] pyridine derivatives as salt inducible kinase 2 (SIK2) inhibitors” (Arrien Pharmaceuticals LLC, priority 2012, dated 2018).

Assays:
Assay type in all cases: biochemical
[1] = target: SIK2 (QIK) (SEQ ID NO: 11) (Homo sapiens, UniProt Q9H0K1); assay: SIK2 kinase assay (radiometric, 10 μM ATP); settings: read-out: SIK2 (QIK) (SEQ ID NO: 11) kinase inhibition result
Procedure: Procedure: Enzyme was incubated with substrate peptide in reaction buffer in the presence and absence of test compounds or Staurosporine. All additions were done on ice, followed by the addition of ATP mix. Wells were uniformly mixed using an Eppendorff plate shaker and incubated at 30° C. for 20 min, and stopped by the addition of 5 μL of 3% phosphoric acid. Volume was increased to 100 μL by adding 0.8% phosphoric acid which was then transferred to PC filter mats (Millipore), pre-equilibrated with 70% ethanol and water. Plates were washed thrice with 100 μL 0.8% phosphoric acid and dried for an hour at 60° C.

SIK1 (SEQ ID NO: 10) = target: T1, SIK1 (SEQ ID NO: 10) (Homo sapiens, UniProt P57059); assay: Protein kinase assay, SIK1; settings: read-out: SIK1 (SEQ ID NO: 10) kinase inhibition result
T1 construct: Reaction Biology Corporation (assay service, HotSpot panel)
T1 sequence (P57059 whole entry): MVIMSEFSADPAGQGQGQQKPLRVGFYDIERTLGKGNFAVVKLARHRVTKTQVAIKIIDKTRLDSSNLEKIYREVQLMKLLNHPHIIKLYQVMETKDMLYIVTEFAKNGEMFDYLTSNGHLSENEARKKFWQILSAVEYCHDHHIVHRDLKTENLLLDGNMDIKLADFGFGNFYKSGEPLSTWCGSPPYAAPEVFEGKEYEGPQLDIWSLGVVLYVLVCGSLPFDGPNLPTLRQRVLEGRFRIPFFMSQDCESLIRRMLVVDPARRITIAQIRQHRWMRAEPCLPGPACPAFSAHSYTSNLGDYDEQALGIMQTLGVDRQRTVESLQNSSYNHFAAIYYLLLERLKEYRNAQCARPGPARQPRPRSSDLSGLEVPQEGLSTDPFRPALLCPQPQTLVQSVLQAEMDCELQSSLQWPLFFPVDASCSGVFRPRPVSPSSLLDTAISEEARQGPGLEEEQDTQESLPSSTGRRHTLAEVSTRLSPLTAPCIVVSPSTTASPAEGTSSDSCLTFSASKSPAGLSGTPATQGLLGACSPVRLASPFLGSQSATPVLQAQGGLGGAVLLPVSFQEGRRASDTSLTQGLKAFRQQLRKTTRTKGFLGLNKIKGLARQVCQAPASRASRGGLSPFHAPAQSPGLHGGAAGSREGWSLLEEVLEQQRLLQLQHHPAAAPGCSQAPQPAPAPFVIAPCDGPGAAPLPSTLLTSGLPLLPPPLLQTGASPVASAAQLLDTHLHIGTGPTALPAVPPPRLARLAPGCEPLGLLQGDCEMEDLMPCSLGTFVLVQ
Procedure: (§1) Briefly, specific kinase/substrate pairs along with required cofactors were prepared in reaction buffer; 20 mM Hepes (pH 7.5), 10 mMmgCl2, 1 mM EGTA, 0.02% Brij35, 0.02 mg/ml BSA, 0.1 mM Na3VO4, 2 mM DTT, 1% DMSO. Compounds were delivered into the reaction, followed ˜20 min later by addition of a mixture of ATP (Sigma) and 33P ATP (PerkinElmer) to a final concentration of 10 μM. […] IC50 values and curve fits were obtained using Prism (GraphPad Software). Kinome tree representations were prepared using Kinome Mapper (http://www.reactionbiology.com/apps/kinome/mapper/LaunchKinome.htm).

[2] = target: T2, SIK3 (QSK) (SEQ ID NO: 24) (Homo sapiens, UniProt Q9Y2K2); assay: Protein kinase assay, SIK3; settings: read-out: SIK3 (QSK) (SEQ ID NO: 24) kinase inhibition result
T2 construct: Reaction Biology Corporation (assay service, HotSpot panel)
T2 sequence (Q9Y2K2 whole entry): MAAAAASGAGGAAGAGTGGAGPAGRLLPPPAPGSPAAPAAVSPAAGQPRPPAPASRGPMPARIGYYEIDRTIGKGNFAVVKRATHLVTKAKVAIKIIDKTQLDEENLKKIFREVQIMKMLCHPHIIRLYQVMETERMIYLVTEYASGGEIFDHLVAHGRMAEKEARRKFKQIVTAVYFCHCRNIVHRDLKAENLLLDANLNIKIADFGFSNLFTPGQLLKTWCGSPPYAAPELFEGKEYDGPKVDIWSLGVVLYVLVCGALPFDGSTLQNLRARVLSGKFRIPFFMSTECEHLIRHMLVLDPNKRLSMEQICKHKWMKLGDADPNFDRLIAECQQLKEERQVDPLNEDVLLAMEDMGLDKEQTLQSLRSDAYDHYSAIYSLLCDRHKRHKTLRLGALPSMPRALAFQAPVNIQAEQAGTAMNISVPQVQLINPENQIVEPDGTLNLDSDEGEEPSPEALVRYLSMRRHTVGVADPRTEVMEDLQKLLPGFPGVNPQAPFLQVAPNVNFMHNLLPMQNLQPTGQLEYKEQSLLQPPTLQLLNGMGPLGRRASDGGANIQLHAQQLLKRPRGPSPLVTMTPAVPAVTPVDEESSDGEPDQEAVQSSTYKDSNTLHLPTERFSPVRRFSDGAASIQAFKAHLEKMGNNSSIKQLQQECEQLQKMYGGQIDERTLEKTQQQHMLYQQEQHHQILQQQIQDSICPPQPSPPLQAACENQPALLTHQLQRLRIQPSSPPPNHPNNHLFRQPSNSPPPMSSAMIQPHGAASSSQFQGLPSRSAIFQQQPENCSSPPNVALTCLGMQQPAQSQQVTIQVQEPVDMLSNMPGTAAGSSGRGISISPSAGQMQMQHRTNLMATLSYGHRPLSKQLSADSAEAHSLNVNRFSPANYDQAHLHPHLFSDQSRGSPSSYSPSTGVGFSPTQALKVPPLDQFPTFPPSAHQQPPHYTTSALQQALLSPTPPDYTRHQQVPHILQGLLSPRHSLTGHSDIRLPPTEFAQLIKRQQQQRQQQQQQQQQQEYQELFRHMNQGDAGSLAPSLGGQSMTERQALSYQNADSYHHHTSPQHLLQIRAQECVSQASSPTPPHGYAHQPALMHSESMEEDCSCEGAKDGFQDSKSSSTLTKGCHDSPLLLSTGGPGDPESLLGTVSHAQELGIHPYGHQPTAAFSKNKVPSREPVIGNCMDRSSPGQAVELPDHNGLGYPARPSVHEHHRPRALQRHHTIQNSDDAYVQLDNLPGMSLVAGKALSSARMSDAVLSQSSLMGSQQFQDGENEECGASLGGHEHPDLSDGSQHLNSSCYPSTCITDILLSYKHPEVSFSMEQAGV
Procedure: as §1

Sequence of SIK2 (QIK) (SEQ ID NO: 11) (Q9H0K1 whole entry): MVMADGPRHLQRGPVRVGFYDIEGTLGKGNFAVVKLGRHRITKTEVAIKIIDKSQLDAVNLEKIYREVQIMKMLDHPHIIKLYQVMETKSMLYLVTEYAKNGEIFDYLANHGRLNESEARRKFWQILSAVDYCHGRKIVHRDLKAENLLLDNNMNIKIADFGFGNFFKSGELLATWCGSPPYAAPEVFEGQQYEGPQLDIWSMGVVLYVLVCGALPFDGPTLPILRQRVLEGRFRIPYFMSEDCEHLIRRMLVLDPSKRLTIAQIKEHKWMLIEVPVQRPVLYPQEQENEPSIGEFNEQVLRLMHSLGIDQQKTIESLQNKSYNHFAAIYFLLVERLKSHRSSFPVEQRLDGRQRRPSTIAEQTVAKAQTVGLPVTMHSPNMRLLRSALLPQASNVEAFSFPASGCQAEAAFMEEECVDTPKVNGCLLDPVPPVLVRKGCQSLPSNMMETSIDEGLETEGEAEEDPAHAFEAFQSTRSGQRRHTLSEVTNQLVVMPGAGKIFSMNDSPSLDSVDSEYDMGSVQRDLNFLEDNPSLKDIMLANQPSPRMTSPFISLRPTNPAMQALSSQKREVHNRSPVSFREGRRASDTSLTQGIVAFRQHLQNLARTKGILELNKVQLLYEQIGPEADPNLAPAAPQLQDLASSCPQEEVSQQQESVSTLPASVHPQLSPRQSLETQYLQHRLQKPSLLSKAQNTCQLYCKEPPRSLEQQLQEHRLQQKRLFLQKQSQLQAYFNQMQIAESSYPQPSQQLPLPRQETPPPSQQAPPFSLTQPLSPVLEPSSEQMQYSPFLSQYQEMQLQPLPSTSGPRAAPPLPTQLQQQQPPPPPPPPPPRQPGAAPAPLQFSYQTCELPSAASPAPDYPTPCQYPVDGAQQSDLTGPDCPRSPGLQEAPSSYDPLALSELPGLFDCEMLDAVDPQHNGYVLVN

SMILES	IC50 [1] [nM]	IC50 (SIK1 (SEQ ID NO: 10)) [nM]	IC50 [2] [nM]
COc1c(F)cc(F)cc1-c1c[nH]c2ncc(-c3cccc(S(=O)(=O)N(C)C)c3)cc12 [Example 185, 3-(3-(3,5-difluoro-2-methoxyphenyl)-1H-pyrrolo[2,3-b]pyridin-5-yl)-N,N-dimethylbenzenesulfonamide]	< 100	> 1000	> 100
COc1cc(Cl)ccc1-c1n[nH]c2nccc(-c3ccsc3)c12 [Example 6, 3-(4-chloro-2-methoxyphenyl)-4-(thiophen-3-yl)-1H-pyrazolo[3,4-b]pyridine]	> 100	> 100	> 1000
COc1c(F)cccc1-c1c[nH]c2ncc(-c3ccc(C)o3)cc12 [Example 168, 3-(3-fluoro-2-methoxyphenyl)-5-(5-methylfuran-2-yl)-1H-pyrrolo[2,3-b]pyridine]	< 100	> 1000	> 1000
COc1c(F)cccc1-c1c[nH]c2ncc(-c3ccc(CN4CCOCC4)s3)cc12 [Example 142, 4-((5-(3-(3-fluoro-2-methoxyphenyl)-1H-pyrrolo[2,3-b]pyridin-5-yl)thiophen-2-yl)methyl)morpholine]	< 100	> 1000	< 100
FC1(F)Oc2cccc(-c3c[nH]c4ncc(-c5ccc(CN6CCCC6)s5)cc34)c2O1 [Example 197, 3-(2,2-difluorobenzo[d][1,3]dioxol-4-yl)-5-(5-(pyrrolidin-1-ylmethyl)thiophen-2-yl)-1H-pyrrolo[2,3-b]pyridine]	< 100	> 100	< 100
CCOc1ccccc1-c1n[nH]c2nccc(-c3ccsc3)c12 [Example 5, 3-(2-ethoxyphenyl)-4-(thiophen-3-yl)-1H-pyrazolo[3,4-b]pyridine]	> 100	> 1000	< 100
COc1ccccc1-c1c[nH]c2nccc(-c3ccsc3)c12 [Example 17, 3-(2-methoxyphenyl)-4-(thiophen-3-yl)-1H-pyrrolo[2,3-b]pyridine]	> 100	> 100	> 100
COc1c(F)cccc1-c1c[nH]c2ncc(-c3cccc(S(=O)(=O)N(C)C(C)(C)C)c3)cc12 [Example 180]	< 100	> 1000	> 100

The remaining lines, values ahead:

IC50 [1] [nM]	IC50 (SIK1 (SEQ ID NO: 10)) [nM]	IC50 [2] [nM]	SMILES
> 100	> 1000	> 100	CCCS(=O)(=O)N1CCC(n2cc(-c3cnc4[nH]cc(-c5cc(F)cc(F)c5OC)c4c3)cn2)CC1 [Example 216, 3-(3,5-difluoro-2-methoxyphenyl)-5-(1-(1-(propylsulfonyl)piperidin-4-yl)-1H-pyrazol-4-yl)-1H-pyrrolo[2,3-b]pyridine]
< 100	> 100	< 100	COc1c(F)cc(F)cc1-c1c[nH]c2ncc(-c3cnn(S(=O)(=O)N4CCN(C)CC4)c3)cc12 [Example 211, 3-(3,5-difluoro-2-methoxyphenyl)-5-(1-((4-methylpiperazin-1-yl)sulfonyl)-1H-pyrazol-4-yl)-1H-pyrrolo[2,3-b]pyridine]
< 100	> 100	< 100	FC1(F)Oc2ccc(-c3c[nH]c4ncc(-c5ccc(CN6CCCCC6)s5)cc34)cc2O1 [Example 204, 3-(2,2-difluorobenzo[d][1,3]dioxol-5-yl)-5-(5-(piperidin-1-ylmethyl)thiophen-2-yl)-1H-pyrrolo[2,3-b]pyridine]
< 100	> 100	< 100	FC1(F)Oc2ccc(-c3c[nH]c4ncc(-c5cnn(C6CCNCC6)c5)cc34)cc2O1 [Example 206, 3-(2,2-difluorobenzo[d][1,3]dioxol-5-yl)-5-(1-(piperidin-4-yl)-1H-pyrazol-4-yl)-1H-pyrrolo[2,3-b]pyridine]
< 100	> 100	< 100	COc1c(F)cc(F)cc1-c1c[nH]c2ncc(-n3cc(N4CCN(CCO)CC4)cn3)cc12 [Example 218, 2-(4-(1-(3-(3,5-difluoro-2-methoxyphenyl)-1H-pyrrolo[2,3-b]pyridin-5-yl)-1H-pyrazol-4-yl)piperazin-1-yl)ethanol]
